{
  "source": "patent US9150548B2",
  "about": "“Combinations of AKT inhibitor compounds and vemurafenib, and methods of use” (Genentech, Inc., priority 2011, dated 2015)",
  "key": {"[1]": {"test_system": "LuCap35V primary human prostate tumor model", "experiment": "In vivo tumor xenograft efficacy, LuCap35V (FIG. 1)", "set-up": "species or system mice", "source_text": "FIG. 1 illustrates results for the compound of Example 2 and docetaxel in LuCap35V primary prostate tumors. FIG. 2 illustrates results for the compound of Example 2 dosed intermittently either PO or IP and docetaxel in PC3-NCI prostate tumors. FIG. 3 illustrates results for the compound of Example 2 dosed PO and docetaxel in PC3-NCI prostate tumors. FIG. 4 illustrates results for the compound of Example 2 dosed IP intermittently and docetaxel in MCF7-neo/HER2 tumors. FIG. 5 illustrates results for the compound of Example 2 dosed PO and docetaxel in MCF7-neo/HER2 breast tumors. FIG. 6 illustrates results for the compound of Example 2 and docetaxel in MAXF401 mammary tumors. FIG. 7 illustrates results for the compound of Example 2 and docetaxel in SKOV3 ovarian tumors. FIG. 8 illustrates results for the compound of Example 2 and cisplatnin in SKOV3 ovarian tumors. FIG. 9 illustrates results for the compound of Example 2 dosed PO and carboplatin in IGROV-1 ovarian tumors. FIG. 10 illustrates results for the compound of Example 2 and GDC-0973 at 2.5 mg/kg in H2122 NCI-NSCL tumors. FIG. 11 illustrates results for the compound of Example 2 and GDC-0973 at 5.0 mg/kg in NCI-H2122 NSCLC tumors. FIG. 12 illustrates results for the compound of Example 2 and GDC-0973 at 7.5 mg/kg in NCI-H2122 NSCLC tumors. FIG. 13 illustrates results for the compound of Example 2 and MDV3100 in LuCap35V tumors."}, "PTEN null line": {"test_system": "PTEN null line", "experiment": "CellTiter-Glo combination assay with docetaxel (FIG. 19)", "format": "cell-based", "source_text": "Viable cells are reflected in relative luminescence units (RLU)."}, "[2]": {"test_system": "prostate specific antigen serum levels", "details": "after a month of taking the medicine; cited from earlier work"}, "[3]": {"details": "active metabolite vs irinotecan itself; cited from earlier work"}},
  "data": [
    {"smiles": "CC(C)NC[C@@H](C(=O)N1CCN(c2ncnc3c2[C@H](C)C[C@H]3O)CC1)c1ccc(Cl)cc1", "note": "[Example 2, (S)-2-(4-chlorophenyl)-1-(4-((5R,7R)-7-hydroxy-5-methyl-6,7-dihydro-5H-cyclopenta[d]pyrimidin-4-yl)piperazin-1-yl)-3-(isopropylamino)propan-1-one]", "values": [
      {"measurement": "tumor response (FIG. 1)", "setting": "[1]", "value": "tumor stasis"},
      {"measurement": "single agent response", "setting": "PTEN null line", "value": "minimal single agent response"}
    ]},
    {"smiles": "CNC(=O)c1ccc(N2C(=S)N(c3ccc(C#N)c(C(F)(F)F)c3)C(=O)C2(C)C)cc1F", "note": "[MDV3100, 4-(3-(4-cyano-3-(trifluoromethyl)phenyl)-5,5-dimethyl-4-oxo-2-thioxoimidazolidin-1-yl)-2-fluoro-N-methylbenzamide]", "values": [
      {"measurement": "decrease in prostate specific antigen serum levels", "setting": "[2]", "value": "≤ 89", "unit": "%"}
    ]},
    {"smiles": "CCc1c2c(nc3ccc(O)cc13)-c1cc3c(c(=O)n1C2)COC(=O)[C@]3(O)CC", "note": "[SN-38, 7-ethyl-10-hydroxy-camptothecin]", "values": [
      {"measurement": "activity relative to irinotecan", "setting": "[3]", "value": 200, "unit": "times"}
    ]},
    {"smiles": "CC(=O)O[C@@]12CO[C@@H]1C[C@H](O)[C@@]1(C)C(=O)[C@H](O)C3=C(C)[C@@H](OC(=O)[C@H](O)[C@@H](NC(=O)OC(C)(C)C)c4ccccc4)C[C@@](O)([C@@H](OC(=O)c4ccccc4)[C@H]21)C3(C)C", "note": "[docetaxel, (2R,3S)—N-carboxy-3-phenylisoserine, N-tert-butyl ester, 13-ester with 5, 20-epoxy-1,2,4,7,10,13-hexahydroxytax-11-en-9-one 4-acetate 2-benzoate, trihydrate]", "values": [
      {"measurement": "tumor response (FIG. 1)", "setting": "[1]", "value": "tumor stasis"}
    ]}
  ]
}
